In paper PMC4198181, “Gold(I) Complexes of 9-Deazahypoxanthine as Selective Antitumor and Anti-Inflammatory Agents” (PLoS ONE, 2014):

Assays:
[1] = system: TNF-α secretion in LPS-stimulated macrophage-like THP-1 cells; experiment: LPS-induced TNF-α secretion in THP-1 macrophages (ELISA); type: cell-based, human; settings: 300 nM, 1 h pretreatment, 24 h after LPS
Procedure: (§1) For the determination of biological activity, we used the human monocytic leukaemia cell line THP-1 (ECACC, Salisbury, UK). The cells were cultivated at 37°C in the RPMI 1640 medium supplemented with 2 mM L-glutamine, 10% FBS, 100 U/mL of penicillin and 100 µg/mL of streptomycin in a humidified atmosphere containing 5% CO2. Stabilized cells (3rd–15th passage) were split into microtitration plates to get a concentration of 500 000 cells/mL and the differentiation to macrophages was induced by phorbol myristate acetate (PMA) dissolved in dimethyl sulfoxide (DMSO) at the final concentration of 50 ng/ml, and the cells were incubated for 24 h. In comparison with monocytes, differentiated macrophages tend to adhere to the bottoms of the cultivation plates. For next 24 h the cells were incubated with a fresh complete RPMI medium, i.e. containing antibiotics and FBS, without PMA. The medium was then aspirated, and the cells were washed with PBS and cultivated for next 24 hours in serum-free RPMI 1640 medium. These prepared macrophages were used for the detection of inflammatory response.
(§2) Differentiated macrophages were pretreated with 300 nM solutions of the tested complexes, HLn, AuCl, [AuCl(PPh3)], PPh3 and Auranofin dissolved in DMSO (the final DMSO concentration was 0.1%) and with 0.1% DMSO solution itself (vehicle) for 1 h; the given concentrations of the tested compounds lack the cytotoxic effect (cell viability >94%) based on the results of WST-1 test. The inflammatory response in pretreated macrophages was triggered by the addition of 1.0 µg/mL lipopolysaccharide (LPS) dissolved in water, while the control cells (CTRL) remained without the LPS treatment.
(§3) Macrophages, which were pretreated with the tested compounds (complexes 1–5, HLn, AuCl, [AuCl(PPh3)], PPh3 and Auranofin) for 1 h, were incubated with LPS for next 24 h. After this period, the medium was collected and the concentration of TNF-α, and IL-1β was determined by the Instant ELISA Kit according to the manufactures' manual.
(§4) The statistically significant differences between individual groups during anti- inflammatory testing were evaluated using a one-way ANOVA test for statistical analysis, followed by Tukey's post-hoc test for multiple comparisons. GraphPad Prism 5.02 (GraphPad Software Inc., San Diego, CA, USA) was used to perform the analysis. The results are presented as arithmetic means±S.E. values.

HOS osteosarcoma cells = experiment: MTT in vitro cytotoxicity, HOS; type: cell-based, human; settings: 24 h treatment, read-out: IC50±S.E., HOS
Procedure: (§5) In vitro cytotoxic activity was determined by the MTT assay in human breast adenocarcinoma (MCF7; ECACC no. 86012803), human osteosarcoma (HOS; ECACC no. 87070202), lung carcinoma (A549; ECACC no. 86012804), malignant melanoma (G361; ECACC no. 88030401), cervix epitheloid carcinoma (HeLa; ECACC no. 93021013), ovarian carcinoma (A2780; ECACC no. 93112519), cisplatin-resistant ovarian carcinoma (A2780R; […] ECACC no 105092802) cancer cell lines, purchased from European Collection of Cell Cultures (ECACC). […] The primary culture of human hepatocytes (HEP220, batch number HEP220819) was obtained from Biopredic International (France). The culture medium was Williams and HAM's F-12 (1∶1) supplemented with penicillin, streptomycin, ascorbic acid, linoleic acid, holo-transferin, ethanolamine, glucagon, insulin, dexamethasone, pyruvate, glucose, glutamine, amphotericin. The medium was enriched for plating with 2% foetal calf serum (v/v). The medium was exchanged for a serum-free medium the day after and the culture was stabilized for additional 24 h. Thereafter, the cells were ready for treatments. […] The MTT assay was performed spectrophotometrically at 540 nm (TECAN, Schoeller Instruments LLC). The cytotoxicity data were expressed as the percentage of viability, where 100% represented the treatments with vehicle (0.1% DMF or 0.1% DMSO). The cytotoxicity data from the cancer cell lines were acquired from three independent experiments (conducted in triplicate) using cells from different passages. The IC50 values were calculated from viability curves. The results are presented as arithmetic means±standard error of the mean (S.E.).

[2] = system: A2780 ovarian carcinoma cells; experiment: MTT in vitro cytotoxicity, A2780; type: cell-based, human; settings: 24 h treatment, read-out: IC50±S.E., A2780
Procedure: as §5

[3] = system: primary culture of human hepatocytes (HEP220); experiment: MTT in vitro cytotoxicity, primary human hepatocytes; type: cell-based; settings: 24 h treatment, MTT; read-out: IC50±S.E., HEP220 (healthy human hepatocytes)
Procedure: as §5

[4] = system: 22Rv1 prostate carcinoma cells; experiment: MTT in vitro cytotoxicity, 22Rv1; type: cell-based, human; settings: 24 h treatment, read-out: IC50±S.E., 22Rv1
Procedure: as §5

[5] = system: A2780R ovarian carcinoma cells resistant to cisplatin; experiment: MTT in vitro cytotoxicity, A2780R; type: cell-based, human; settings: for IC50: 24 h treatment, MTT, read-out: IC50±S.E., A2780R
Procedure: as §5

[6] = system: HeLa cervix epitheloid carcinoma cells; experiment: MTT in vitro cytotoxicity, HeLa; type: cell-based, human; settings: 24 h treatment, read-out: IC50±S.E., HeLa
Procedure: as §5

[7] = system: G361 malignant melanoma cells; experiment: MTT in vitro cytotoxicity, G361; type: cell-based, human; settings: 24 h treatment, read-out: IC50±S.E., G361
Procedure: as §5

[8] = system: MCF7 breast carcinoma cells; experiment: MTT in vitro cytotoxicity, MCF7; type: cell-based, human; settings: 24 h treatment, read-out: IC50±S.E., MCF7
Procedure: as §5

[9] = system: THP-1 monocytic leukaemia cells; experiment: WST-1 in vitro cytotoxicity, THP-1; type: cell-based, human; settings: 24 h treatment, WST-1, 0.16–10.00 µM; read-out: IC50±S.E., THP-1
Procedure: Before the in vitro anti-inflammatory testing, in vitro cytotoxicity on human monocytic leukaemia cells (THP-1, ECACC no. 88081201) was determined using the WST-1 assay. The THP-1 cells (floating monocytes, 500 000 cells/mL) were incubated in 100 µL of the serum-free RPMI 1640 medium and seeded into 96-well plates in triplicate at 37°C. Measurements were taken 24 h after the treatment with the tested compounds dissolved in 0.1% DMSO in the concentration range of 0.16–10.00 µM. Viability was determined by the WST-1 test according to the manufacturer's manual. The amount of the formed formazan (which correlates to the number of metabolically active cells in the culture) was calculated as a percentage of the control cells, which were treated only with 0.1% DMSO and was set-up as 100%. The IC50 values of the tested compounds were calculated from the obtained data. The WST-1 assay was performed spectrophotometrically at 440 nm (FLUOstar Omega, BMG Labtech).
The cytotoxicity data were expressed as the percentage of viability, where 100% represented the treatments with vehicle (0.1% DMF or 0.1% DMSO). The cytotoxicity data from the cancer cell lines were acquired from three independent experiments (conducted in triplicate) using cells from different passages. The IC50 values were calculated from viability curves. The results are presented as arithmetic means±standard error of the mean (S.E.). The significance of the differences between the results was assessed by the ANOVA analysis with p<0.05 considered to be significant (QC Expert 3.2, Statistical software, TriloByte Ltd., Pardubice, Czech Republic).

[10] = system: λ-carrageenan-induced hind paw edema; experiment: Carrageenan-induced hind paw edema; type: in vivo, Wistar-SPF rats; settings: i.p., dose equivalent in gold to 10 mg/kg Auranofin
Procedure: Wistar-SPF (6–8 weeks male) rats were obtained from AnLab, Ltd. (Prague, Czech Republic). The animals were kept in plexiglass cages at the constant temperature of 22±1°C and relative humidity of 55±5% for at least 1 week before the experiment. They were given food and water ad libitum. All the experimental procedures were performed according to the National Institutes of Health (NIH) Guide for the Care and Use of Laboratory Animals. In addition, all the tests were conducted under the guidelines of the International Association for the Study of Pain [61]. After a one-week adaptation period, male Wistar-SPF rats (200–250 g) were randomly assigned to five groups (n = 7) of the animals in the study. The first, control group, received 25% DMSO (v/v in water, intraperitoneal; i.p.). The next three groups were pretreated with complexes 2, 4 and 5, and involved into the carrageenan-treatment. The fifth group was treated with a non-steroidal anti-inflammatory drug Indomethacin (5 mg/kg), which served as a positive control group (Indomethacin + carrageenan).
The carrageenan-induced hind paw edema model was used for the determination of anti-inflammatory activity. Animals were i.p. pretreated with complexes 2, 4, and 5 (the dosages of the individual complexes were adjusted to contain the same amount of gold as in 10 mg/kg dose of Auranofin), Indomethacin (5 mg/kg), or 25% DMSO (v/v in water) 30 min prior to the injection of 1% λ-carrageenan solution (50 µL) into the plantar side of right hind paws of the rats. The paw volume was measured immediately after the carrageenan injection (this value was set-up as baseline value for the hind paw volume) and during the next 6 h after the administration of the edematogenic agent using a plethysmometer (model 7159, Ugo Basile, Varese, Italy). The degree of swelling was evaluated as a percentage of the change of the volume of the right hind paw after the carrageenan treatment from the baseline volume. A non-steroidal anti-inflammatory drug Indomethacin was used as a positive control and the obtained data were also compared with the previously reported profile of antiedematous activity for Auranofin [38]. After 6 h, the animals were sacrificed and the edematous feet were dissected, the tissue from the plantar parts was extracted, fixed and stained by a standard hematoxylin/eosin (HE) staining for cytological evaluation of polymorphonuclear cells infiltration.
as §4

[11] = system: A549 lung carcinoma cells; experiment: MTT in vitro cytotoxicity, A549; type: cell-based, human; settings: 24 h treatment, read-out: IC50±S.E., A549
Procedure: as §5

[12] = system: IL-1β secretion in LPS-stimulated macrophage-like THP-1 cells; experiment: LPS-induced IL-1β secretion in THP-1 macrophages (ELISA); type: cell-based, human; settings: 300 nM, 1 h pretreatment, 24 h after LPS
Procedure: as §1, §2, §3, §4

SMILES | effect on LPS-induced TNF-α secretion [1] | IC50 (HOS osteosarcoma cells) [µM] | IC50 [2] [µM] | IC50 [3] [µM] | IC50 [4] [µM] | IC50 [5] [µM] | IC50 [6] [µM] | IC50 [7] [µM] | IC50 [8] [µM] | IC50 [9] [µM] | IC50 [11] [µM] | other results
c1ccc(CCOc2ncnc3cc[nH]c23)cc1 [HL5, 6-phenethyloxy-9-deazapurine] | stimulate the production |  |  |  |  |  |  |  |  |  |  | 
c1ccc(COc2ncnc3cc[nH]c23)cc1 [HL4, 6-benzyloxy-9-deazapurine] | stimulate the production |  |  |  |  |  |  |  |  |  |  | 
[Au][n]1ccc2ncnc(OCc3ccccc3)c21.c1ccc(P(c2ccccc2)c2ccccc2)cc1 [complex 4] |  | 1.8 ± 0.3 | 4.6 ± 0.2 | 23.7 ± 2.1 | 3.5 ± 0.2 | 5.1 ± 0.3 | 14.3 ± 0.2 | 3.5 ± 0.2 | 4 ± 0.9 | 1.7 ± 0.1 | > 20 | overall antiedematous / anti-inflammatory activity [10]: significant anti-inflammatory effects; antiedematous activity profile up to 180 min after carrageenan ([10]; 30 min before carrageenan): very similar pharmacological profiles of complexes 2 and 4 with the reference drug Indomethacin
[Au][n]1ccc2ncnc(OCC3CCCO3)c21.c1ccc(P(c2ccccc2)c2ccccc2)cc1 [complex 3] |  | 4 ± 0.6 | 4.6 ± 0.3 | 24.1 ± 2.4 | 21 ± 0.7 | 5.3 ± 0.4 | 20.7 ± 0.2 | 3.4 ± 0.2 | 2.2 ± 0.2 | 1 ± 0.1 | 21.4 ± 0.2 | 
CC(C)Oc1ncnc2cc[nH]c12 [HL2, 6-isopropyloxy-9-deazapurine] | stimulate the production |  |  |  |  |  |  |  |  |  |  | 
N.N.[Cl][Pt][Cl] [cisplatin, reference compound] |  | 20.5 ± 0.1 | 11.5 ± 0.5 | > 50 | 26.9 ± 1.2 | 27 ± 1.5 | > 50 | 5.3 ± 0.2 | 17.9 ± 1.2 |  | > 50 | resistance factor (RF), IC50(A2780R)/IC50(A2780) ([5]; ratio resistant/sensitive cells): 2.4
CCOc1ncnc2cc[n]([Au])c12.c1ccc(P(c2ccccc2)c2ccccc2)cc1 [complex 1] |  | 3.3 ± 0.1 | 4.8 ± 0.1 | 24 ± 1.9 | 3.5 ± 0.1 | 5.2 ± 0.3 | 22 ± 0.6 | 3.5 ± 0.2 | 3.1 ± 0.2 | 0.8 ± 0.1 | 20.7 ± 0.1 | level of IL-1β diminished by [12]: 32%
[Cl][Au].c1ccc(P(c2ccccc2)c2ccccc2)cc1 [[AuCl(PPh3)], reference compound] | none of the reference compounds, such as AuCl, HLn, [AuCl(PPh3)] and PPh3, exhibited any expected effect |  |  |  |  |  |  |  |  |  |  | 
c1ccc(P(c2ccccc2)c2ccccc2)cc1 [PPh3, triphenylphosphine] | none of the reference compounds, such as AuCl, HLn, [AuCl(PPh3)] and PPh3, exhibited any expected effect |  |  |  |  |  |  |  |  |  |  | effect on LPS-induced IL-1β secretion [12]: decreased the production of IL-1β by a manner comparable to free ligands; level of IL-1β diminished by [12]: ~32%
